Reference: patent publication US8822506B2, “Use of succinate dehydrogenase inhibitors for controlling powdery mildew primary infections” (Bayer Cropscience AG, priority 2009, dated 2014)

Columns and labels:
Assay type in all cases: in vivo, Podosphera leucotricha
Powdery mildew [1] = experiment: Apple orchard field trial, powdery mildew secondary infections on leaves (incidence), assessed 10 days after application 8; conditions: for 10DAT8 [% infested leaves] / 10DAT8 [% efficacy] (Abbott): apples, 10 days after application 8; for 10DAT8 [% infested leaves]: 8 applications at 10-day interval, untreated 96; for 10DAT8 [% efficacy] (Abbott): 8 applications, infested leaves
Method: (§1) Fluopyram was tested in apples orchard in comparison with already know fungicides active against Powdery mildew such as triadimenol (Bayleton) and boscalid.
(§2) Fluopyram was applied at range of rates: 18.5 g-25 g-37.5-50 g a.s./ha/meter canopy height (g ha/m c.h.). Bayleton was applied at 25 g a.s./ha/m c.h. Boscalid (Cantus WG50) was applied at 125 g a.s./m c.h.
(§3) During the spray season, the compounds were applied at apple susceptible stages from BBCH09 (green leaf tips 5 mm above bud scales to BBCH73 Fruit size between 20 and 40 mm (as described in BBCH Monograph, 2. Edition, 2001, edited by Uwe Meier, Federal Biological Research Centre for Agriculture and Forestry) in order to protect leaves, buds and shoots against Powdery mildew. The compounds have been applied eight times with an interval of ten days during spray season.
(§4) The type of assessments of infections was: • % infested area on leaves (severity) and % infested leaves (incidence) were assessed 10 days after application 8 (10DAT8). • Count and % infested shoots (primary infection) were assessed 345 days after application 8 (345 DAT8). Results

Powdery mildew [2] = experiment: Apple orchard field trial, powdery mildew primary infection of shoots in the following year, assessed 345 days after application 8; conditions: apples, 8 applications; for 345DAT8 [% infested shoots]: 345 days after application 8, no other application, untreated 45.2; for 345DAT8 [% efficacy] (Abbott): 345 days after application 8, infested shoots
Method: as §1, §2, §3, §4

Powdery mildew [3] = experiment: as above; conditions: proximate year (assessment 345DAT8), without any other application; dose rate relation, 18.5 to 50 g a.s./m c.h.

## CC(C)(C)C(O)C(Oc1ccc(Cl)cc1)n1cncn1 (centres unmarked) [Triadimenol]
Powdery mildew [1]; 25 g a.s./ha/m c.h.
  10DAT8 [% infested leaves]: 32%
  10DAT8 [% efficacy] (Abbott): 66.7%
Powdery mildew [2]; 25 g a.s./ha/m c.h.
  345DAT8 [% infested shoots]: 27.5%
  345DAT8 [% efficacy] (Abbott): 39.1%

## O=C(NCCc1ncc(C(F)(F)F)cc1Cl)c1ccccc1C(F)(F)F [Fluopyram, N-{2-[3-chloro-5-(trifluoromethyl)-2-pyridinyl]ethyl}-2-(trifluoromethyl)benzamide]
Powdery mildew [1]; 18.5 g a.s./ha/m c.h.
  10DAT8 [% infested leaves]: 8.7%
  10DAT8 [% efficacy] (Abbott): 91%
Powdery mildew [1]; 25 g a.s./ha/m c.h.
  10DAT8 [% infested leaves]: 10%
  10DAT8 [% efficacy] (Abbott): 89.6%
Powdery mildew [1]; 37.5 g a.s./ha/m c.h.
  10DAT8 [% infested leaves]: 2.7%
  10DAT8 [% efficacy] (Abbott): 97.2%
Powdery mildew [1]; 50 g a.s./ha/m c.h.
  10DAT8 [% infested leaves]: 0.7%
  10DAT8 [% efficacy] (Abbott): 99.3%
Powdery mildew [1]; assessment 10DAT8, 18.5 g to 50 g a.s./m c.h., visible dose rate effect, superior to triadimenol and boscalid from the lowest rate
  efficacy against powdery mildew on apples against secondary infections (in words): excellent efficacy
Powdery mildew [2]; 18.5 g a.s./ha/m c.h.
  345DAT8 [% infested shoots]: 17.7%
  345DAT8 [% efficacy] (Abbott): 60.9%
Powdery mildew [2]; 25 g a.s./ha/m c.h.
  345DAT8 [% infested shoots]: 14%
  345DAT8 [% efficacy] (Abbott): 69%
Powdery mildew [2]; 37.5 g a.s./ha/m c.h.
  345DAT8 [% infested shoots]: 13%
  345DAT8 [% efficacy] (Abbott): 71.2%
Powdery mildew [2]; 50 g a.s./ha/m c.h.
  345DAT8 [% infested shoots]: 9%
  345DAT8 [% efficacy] (Abbott): 80.1%
Powdery mildew [3]
  level of infection measured by the % of primary infested shoots (in words): high decrease of infestation

## O=C(Nc1ccccc1-c1ccc(Cl)cc1)c1cccnc1Cl [Boscalid, 2-chloro-N-(4′-chlorobiphenyl-2-yl)nicotinamide]
Powdery mildew [1]; 125 g a.s./ha/m c.h.
  10DAT8 [% infested leaves]: 46%
  10DAT8 [% efficacy] (Abbott): 52.1%
Powdery mildew [2]; 125 g a.s./ha/m c.h.
  345DAT8 [% infested shoots]: 30.8%
  345DAT8 [% efficacy] (Abbott): 31.7%
